Consider 1 compound from ChEMBL document CHEMBL2380299, “Sungsanpin, a lasso peptide from a deep-sea streptomycete” (J Nat Prod, 2013).

Each structure is given as a SMILES string. The source made the active and inactive calls. The rule behind the calls is not given here. Where a SMILES comes first, the peptide text is derived from it. Bridges are numbered along the chain shown (N, C = ends).

Data set [1] relates to A549. Briefly: Antiinvasive activity against human A549 cells assessed as MMP-2 mRNA level after 24 hrs by RT-PCR analysis. Format: functional, cell-based.
Data set [2] concerns A549. Briefly: Antiinvasive activity against human A549 cells assessed as increase in TIMP-2 mRNA level after 24 hrs by RT-PCR analysis. The class given is functional, cell-based.
Data set [3] deals with A549. Kind of data set: Antiinvasive activity against human A549 cells at 50 uM after 24 hrs by micro plate reader analysis relative to control. Format: functional.
Data set [4] relates to A549. Kind of data set: Antiinvasive activity against human A549 cells assessed as increase in TIMP-1 mRNA level after 24 hrs by RT-PCR analysis. The class given is functional, cell-based.
The test system of data set [5] is A549. Kind of data set: Antiinvasive activity against human A549 cells assessed as MMP-9 mRNA level after 24 hrs by RT-PCR analysis. Format: functional, cell-based.
Data set [6] concerns A549. Briefly: Cytotoxicity against human A549 cells up to 50 uM after 24 hrs by CCK-8 assay. The class given is cell-based. The note with it: a549, 24 h.
In data set [7] the test system is A549. Kind of data set: Antiinvasive activity against human A549 cells at 5 uM after 24 hrs by micro plate reader analysis relative to control. Format: functional.

For the compound `CC[C@H](C)[C@@H]1NC(=O)[C@@H]2CCCN2C(=O)[C@H](CCCCN)NC(=O)[C@H](CO)NC(=O)CNC(=O)[C@H](Cc2ccccc2)NC(=O)CNC(=O)C[C@@H](C(=O)N[C@@H](CO)C(=O)N[C@@H](Cc2ccccc2)C(=O)NCC(=O)N[C@@H](CC(C)C)C(=O)N[C@@H](CO)C(=O)N[C@@H](Cc2c[nH]c3ccccc23)C(=O)N[C@@H](CC(C)C)C(=O)O)NC1=O` [SUNGSANPIN] (GFGSKPIDSFGLSWL-OH; lactam N-8), the result in data set [1] and in data set [5] was inactive. Besides, the Activity entry in data set [2] is “Dose-dependent effect”; in data set [3], 47%; in data set [4], “Dose-dependent effect”; in data set [6] it was “Non-toxic”; in data set [7], 25%.
